These results are taken from BindingDB's records for doi:10.1021/jm970682+ (University of Louvain, 1998).

The first test is described as follows: The compound was tested for the affinity on sigma 1 receptor using [3H]- pentazocine as radioligand.
As usually defined, the Ki is a measure of affinity in units of concentration, obtained from inhibition or displacement. The compound `CCC(=O)c1ccc2c(c1)sc(=O)n2CCN1CCCCC1` [3-(2-Piperidin-1-yl-ethyl)-6-propionyl-3H-benzothiazol-2-one] had a Ki of 47 nM.

As to `CN(C)CCn1c(=O)oc2cc(C(=O)c3ccccc3)ccc21` [6-Benzoyl-3-(2-dimethylamino-ethyl)-3H-benzooxazol-2-one], the affinity corresponds to a Ki of 365 nM.

The compound `CCCCC(=O)c1ccc2c(c1)sc(=O)n2CCN(C)C` [3-(2-Dimethylamino-ethyl)-6-pentanoyl-3H-benzothiazol-2-one] registered an inhibition constant Ki of 628 nM.

In turn, `O=C(c1ccccc1)c1ccc2c(c1)sc(=O)n2CCN1CCCC1` [6-Benzoyl-3-(2-pyrrolidin-1-yl-ethyl)-3H-benzothiazol-2-one] returned an inhibitory constant (Ki) of 54 nM.

`CCC(=O)c1ccc2c(c1)oc(=O)n2CCN1CCCCC1` [3-(2-Piperidin-1-yl-ethyl)-6-propionyl-3H-benzooxazol-2-one]: the affinity, expressed as Ki, was 72 nM.

With `CCC(=O)c1ccc2c(c1)sc(=O)n2CCN1CCCC1` [6-Propionyl-3-(2-pyrrolidin-1-yl-ethyl)-3H-benzothiazol-2-one], the inhibition constant (Ki) amounted to 571 nM.

`O=c1oc2cc(Cc3ccccc3)ccc2n1CCN1CCOCC1` [6-Benzyl-3-(2-morpholin-4-yl-ethyl)-3H-benzooxazol-2-one]: affinity was put at a Ki of 72 nM.

On to `CCCc1ccc2c(c1)sc(=O)n2CCN1CCCCC1` [3-(2-Piperidin-1-yl-ethyl)-6-propyl-3H-benzothiazol-2-one], for which the affinity corresponds to a Ki of 0.6 nM.

Assay in the next test: as above
This is another data set of the same source.
`CCC(=O)c1ccc2c(c1)sc(=O)n2C(=O)CC` [3,6-Dipropionyl-3H-benzothiazol-2-one] gave a Ki of 63 nM.
